Data taken from US12473308B2, “Luminescent silafluorene and germafluorene compounds” (The Curators Of The University Of Missouri, priority 2019, dated 2025).
“Also recorded” adds a separate entry of the source.

How the values were obtained:
[1] = Quantum yield in aqueous solution (Tris) and in the presence of surfactants; type: physicochemical; conditions: for φTX (quantum yield): 0.6 mM TX-100; for φSBDS (quantum yield): 10 mM SDBS; for φCTAB (quantum yield): 20 mM CTAB; for φCHAPS (quantum yield): 25 mM CHAPS; for φSDS (quantum yield): 30 mM SDS; for φTris (quantum yield): aqueous solution, Tris, no surfactant
Protocol: (§1) Quantum yields were collected for these compounds in aqueous solution and in the presence of the aforementioned surfactants and the data are shown in Table 2. Quantum yields in the presence of surfactants are markedly higher than in their absence. In the presence of detergents, the quantum yield is recovered to near perfect quantum efficiency.
(§2) The surfactants are 0.6 mM TX-100, 25 mM CHAPS, 20 mM CTAB, 30 mM SDS, and 10 mM SDBS. ExpiCHO cells were stained with 10 μM 3Si for 15 minutes. Experimental details include Gains: 762; Digital gains: 2.3; Pinhole: 1 AU; and 2% Laser intensity.

[2] = Quantum yield in CH2Cl2 (DCM) solution; type: physicochemical
Text: (§3) These new compounds (3Si/3Ge through 8Si %8Ge) show a strong absorption band in CH2Cl2 solution in the region of 371-394 nm (log ε values ranged from 4.25-5.23) and emission maxima in the region of 401-452 nm. The quantum efficiencies determined from solution samples containing the silafluorenes 3Si-8Si were high (0.80-0.87) and the related germafluorenes 3Ge-8Ge had slightly lower values between 0.64-0.83. […] The solid-state quantum yields have been measured for several of the sila- and germafluorenes. The solid-state quantum yields for 7 compounds have been measured and the values range from 0.14 to 0.91 with the highest values for compounds 5Ge […] and 6Ge (0.81). Additional quantum yield measurements both in solution and in the solid-state are made for other compounds shown in Scheme 2 (FIG. 2).
The silafluorenes show intense fluorescence both in solution and in the solid-state (FIG. 11). The quantum yield range in CH2Cl2 solution is 0.80-0.89 for several silafluorenes studied to date.
as §1

[3] = Solubility in DMSO and in aqueous solution; type: physicochemical; conditions: for solubility in aqueous solution: aqueous solutions / aqueous buffer, diluted from DMSO
Text: Studies have been conducted herein for a series of silafluorenes with a broad range of alkynyl substituent groups: 3Si, 4Si, 7Si, […], 9Si, and 11Si, and 13Si. […] This provides a tunability to the optical behavior that is useful for bioimaging.
This provides a tunability to the optical behavior that is useful for imaging (FIG. 40).

[4] = Absorption and emission in CH2Cl2 solution and in the solid-state; type: physicochemical
Text: as §3

[5] = Solvatochromism: emission in different solvents; type: physicochemical
Text: Solvents, like water and dichloromethane, greatly affect the fluorescence energy (i.e., color) of some molecules—this is called solvatochromism. Excited electrons may mobilize across the molecule more easily in these cases. For example, 2,7-bis(4-ethynylbenzaldehyde)-3,6-dimethoxysilafluorene emits green in ethanol, but blue in nonpolar solvents (FIGS. 23-24).

[6] = Fluorescence change upon addition of detergent Triton X-100; conditions: for spectral change when Triton X-100 is added: neutral detergent Triton X-100
Protocol: (§4) Non-denaturing detergents, common proxies for membranes and lipids, were added to each compound. […] Moreover, the degree of enhancement is very sensitive to the aggregation state of the detergent: enhancement is more dramatic at concentrations at which the detergents are known to form micellar aggregates (critical micelle concentration).
Detergents enhance fluorescence. Triton X-100 (TX100) was added to each metallafluorene at concentrations below and above TX-100's CMC (0.3 mM), and fluorescence was measured (FIGS. 31A, 31B, and 32).
as §4, with “(i.e. the critical” for “(critical”

[7] = system: yeast cells (S. cerevisiae); assay: Fluorescence confocal microscopy of yeast cells; type: cell-based; conditions: permeabilized with DMSO, 405 nm laser, 100×
Protocol: S. cerevisiae were stained with 2,7-bis(4-ethynylphenanthrene)-3,6-dimethoxy-9,9-diphenylsilafluorene, referred to as Si phenanthrene, for 1 hour, then imaged on a confocal microscope (FIGS. 35 and 36).
S. cerevisiae were stained with 2,7-bis(4-ethynylbenzaldehyde)-3,6-dimethoxy-9,9-diphenylsilafluorene, referred to as Si benzaldehyde, for 1 hour, then imaged on a confocal microscope (FIG. 37). Again, DMSO was used to permeabilize cells.

[8] = Solid-state quantum yield; type: physicochemical
Text: as §3

ExpiCHO cells = assay: Fluorescence staining of CHO cells; type: cell-based; conditions: 10 μM, 15 minutes
Protocol: as §2

[9] = system: calf thymus (mixed sequence) DNA; assay: Spectroscopic DNA binding study; conditions: aqueous buffer, calf thymus DNA added

COc1ccc2cc(C#Cc3c[c]4c(cc3OC)-c3cc(OC)c(C#Cc5ccc6cc(OC)ccc6c5)c[c]3[Ge]4([c]3ccccc3)[c]3ccccc3)ccc2c1 [8Ge]
φTX (quantum yield) [1]: 0.85 ± 0.06 | φSBDS (quantum yield) [1]: 0.47 | φCTAB (quantum yield) [1]: 0.99 | φCHAPS (quantum yield) [1]: 0.93 | φSDS (quantum yield) [1]: 0.30 | φTris (quantum yield) [1]: 0.094 ± 0.01 | φDCM (quantum yield) [2]: 0.75 | solubility in DMSO [3]: low millimolar concentrations; also recorded: low micromolar concentrations | solubility in aqueous solution [3]: low micromolar concentrations

FC(F)(F)c1ccc(C#Cc2cc[c]3c(c2)-c2cc(C#Cc4ccc(C(F)(F)F)cc4)cc[c]2[Ge]3([c]2ccccc2)[c]2ccccc2)cc1 [16Ge]
shift of absorbance and emission compared to related 2,7-disubstituted derivatives ([4]; 3,6-disubstituted versus 2,7-disubstituted): significant blue-shift | absorption maximum ([4]; CH2Cl2 solution): 288 nm | emission maximum ([4]; CH2Cl2 solution): 352 nm | emission from the solid-state ([4]; solid-state): 393 nm

COc1cc2c(cc1C#Cc1ccc(C=O)cc1)[Si](c1ccccc1)(c1ccccc1)c1cc(C#Cc3ccc(C=O)cc3)c(OC)cc1-2 [13Si, 2,7-bis(4-ethynylbenzaldehyde)-3,6-dimethoxy-9,9-diphenylsilafluorene]
emission λmax depending on the solvent ([5]; ethanol, dichloromethane, hexanes): 440-550 nm | emission colour ([5]; in ethanol): green | emission colour ([5]; in nonpolar solvents): blue | emission enhancement upon the addition of detergent/membrane mimics (comparison) [6]: comparable | spectral change when Triton X-100 is added [6]: dramatic blue shifts and emission enhancements | staining pattern in cells [7]: staining diffuse throughout the cell | solubility in DMSO [3]: low millimolar concentrations; also recorded: low micromolar concentrations | solubility in aqueous solution [3]: low micromolar concentrations

COc1cc2c(cc1C#Cc1cccc(F)c1)[Si](c1ccccc1)(c1ccccc1)c1cc(C#Cc3cccc(F)c3)c(OC)cc1-2 [meta-fluoro-silafluorene]
emission (in words) ([4]; methylene chloride solution and solid state): strong emission

COc1cc2[c](cc1C#Cc1ccc(Oc3ccccc3)cc1)[Ge]([c]1ccccc1)([c]1ccccc1)[c]1cc(C#Cc3ccc(Oc4ccccc4)cc3)c(OC)cc1-2 [6Ge]
solid-state quantum yield [8]: 0.81

COc1cc2c(cc1C#Cc1ccc(C)cc1)[Si](c1ccccc1)(c1ccccc1)c1cc(C#Cc3ccc(C)cc3)c(OC)cc1-2 [4Si]
φTX (quantum yield) [1]: 0.97 ± 0.04 | φSBDS (quantum yield) [1]: 0.56 | φCTAB (quantum yield) [1]: 0.93 | φCHAPS (quantum yield) [1]: 0.86 | φSDS (quantum yield) [1]: 0.55 | φTris (quantum yield) [1]: 0.24 ± 0.01 | φDCM (quantum yield) [2]: 0.89 | spectral change when Triton X-100 is added [6]: dramatic blue shifts and emission enhancements | solubility in DMSO [3]: low millimolar concentrations; also recorded: low micromolar concentrations | solubility in aqueous solution [3]: low micromolar concentrations

COc1cc2c(cc1C#Cc1cccc(F)c1)[Si](c1ccccc1)(c1ccccc1)c1cc(C#Cc3cccc(F)c3)c(OC)cc1-2 [3Si]
φTX (quantum yield) [1]: 1.0 ± 0.04 | φSBDS (quantum yield) [1]: 0.49 ± 0.09 | φCTAB (quantum yield) [1]: 0.98 | φCHAPS (quantum yield) [1]: 0.90 ± 0.02 | φSDS (quantum yield) [1]: 0.55 ± 0.03 | φTris (quantum yield) [1]: 0.34 ± 0.005 | φDCM (quantum yield) [2]: 0.80 | fluorescence inside cells (ExpiCHO cells): observed inside of CHO cells | emission enhancement upon the addition of detergent/membrane mimics (comparison) [6]: comparable | spectral change when Triton X-100 is added [6]: dramatic blue shifts and emission enhancements | solubility in aqueous solution [3]: low micromolar concentrations

COc1cc2[c](cc1C#Cc1ccc(C(C)(C)C)cc1)[Ge]([c]1ccccc1)([c]1ccccc1)[c]1cc(C#Cc3ccc(C(C)(C)C)cc3)c(OC)cc1-2 [5Ge]
solid-state quantum yield [8]: 0.92

COc1cc2c(cc1C#Cc1ccc(-c3ccccc3)cc1)[Si](c1ccccc1)(c1ccccc1)c1cc(C#Cc3ccc(-c4ccccc4)cc3)c(OC)cc1-2 [7Si]
φTX (quantum yield) [1]: 0.94 ± 0.05 | φSBDS (quantum yield) [1]: 0.73 | φCTAB (quantum yield) [1]: 0.93 | φCHAPS (quantum yield) [1]: 0.32 | φSDS (quantum yield) [1]: 0.88 ± 0.05 | φTris (quantum yield) [1]: 0.11 ± 0.01 | φDCM (quantum yield) [2]: 0.82 | solubility in DMSO [3]: low millimolar concentrations; also recorded: low micromolar concentrations; also recorded: least soluble | solubility in aqueous solution [3]: low micromolar concentrations

COc1cc2c(cc1C#Cc1ccc(-n3c4ccccc4c4ccccc43)cc1)[Si](c1ccccc1)(c1ccccc1)c1cc(C#Cc3ccc(-n4c5ccccc5c5ccccc54)cc3)c(OC)cc1-2 [11Si]
solubility in DMSO [3]: low millimolar concentrations; also recorded: low micromolar concentrations | solubility in aqueous solution [3]: low micromolar concentrations

COc1cc2c(cc1C#Cc1cccc3ccc4ccccc4c13)[Si](c1ccccc1)(c1ccccc1)c1cc(C#Cc3cccc4ccc5ccccc5c34)c(OC)cc1-2 [9Si, 2,7-bis(4-ethynylphenanthrene)-3,6-dimethoxy-9,9-diphenylsilafluorene]
emission enhancement upon the addition of detergent/membrane mimics (comparison) [6]: greatest emission enhancement | spectral change when Triton X-100 is added [6]: dramatic blue shifts and emission enhancements | staining pattern in cells [7]: either localizing onto an intracellular structure or self-aggregating within the cell | change of fluorescence emission upon addition of DNA [9]: decrease in fluorescence emission | solubility in DMSO [3]: low millimolar concentrations; also recorded: low micromolar concentrations | solubility in DMSO ([3]; listed as 9.1): least soluble | solubility in aqueous solution [3]: low micromolar concentrations | solubility in aqueous solution ([3]; listed as 2,7-bis-alkynyl(phenanthrene)silafluorene): low micromolar concentration
